Experimental findings from PMC9224512, “New Insights into the Determinants of Specificity in Human Type I Arginase: Generation of a Mutant That Is Only Active with Agmatine as Substrate” (International Journal of Molecular Sciences, 2022) are described below.

Residue numbers refer to the chain shown, from its start. Several values for one entry are separate records, joined by “and”; a condition that tells them apart may be missing. Equal values may be shown once.

For orientation: kcat means the maximal rate divided by the concentration of active sites. The Km is the concentration of substrate that gives half-maximal velocity. The term Ki denotes a dissociation constant, usually derived from enzyme kinetics or from competition with a known ligand.

Type in all cases: biochemical
Experiment [1] deals with T1, type I human arginase D181T (Homo sapiens, UniProt P05089, D181T).
T1 sequence (P05089 1-322 D181T): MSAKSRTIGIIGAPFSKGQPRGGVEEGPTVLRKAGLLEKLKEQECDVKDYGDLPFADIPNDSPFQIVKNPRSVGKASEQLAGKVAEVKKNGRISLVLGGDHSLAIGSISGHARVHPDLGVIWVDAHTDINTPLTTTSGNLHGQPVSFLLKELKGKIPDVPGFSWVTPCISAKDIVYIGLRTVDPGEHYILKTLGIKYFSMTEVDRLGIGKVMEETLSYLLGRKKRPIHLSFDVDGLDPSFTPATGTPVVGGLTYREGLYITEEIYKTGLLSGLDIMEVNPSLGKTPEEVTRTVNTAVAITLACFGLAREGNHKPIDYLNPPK
Nature of the experiment: Kinetic and inhibition studies, D181T mutant. The conditions noted are these: substrate arginine. The procedure:
(§1) Bacterial cultures were grown with shaking at 37 °C in Luria Broth media, in the presence of ampicillin (100 μg/mL). The wild-type and mutant human liver arginase cDNAs were directionally cloned into the pBluescript II KS(+) expression vector and then expressed in E. coli JM109, following induction with 1 mM isopropyl β-D-thiogalactopyranoside. The bacterial cells were disrupted by sonication on ice (5 × 30 s pulses), centrifuged for 20 min at 12,000× g, and the obtained supernatant was precipitated with ammonium sulfate (60% saturation). The pellet, collected by centrifugation at 12,000× g for 10 min, was re-suspended in buffer 5 mM Tris–HCl (pH 7.5) containing 2 mM MnCl2 and dialyzed for 6 h at 4 °C against the same buffer. After incubation with 5 mM MnCl2 for 10 min at 60 °C, the enzyme variants were purified as previously described. The purity of the enzymes was evaluated by SDS–PAGE stained by Coomassie blue and immunodetection using an anti- rat arginase I antibody.
(§2) The single, double, triple, and chimera variants of human arginase type I were obtained by PCR, using the QuickChange site-directed mutagenesis kit (Stratagene, La Jolla, CA, USA); the plasmid pBluescript II KS(+) containing the human liver arginase cDNA was used as template. To obtain the chimeric species of human arginase type I, serial mutations were made in each loop to be modified, using as template DNA the wild-type arginase gene or the previous done mutation, subcloned in the plasmid pBluescript II KS (+). Specifically, the residues present in the arginase structure were replaced by those corresponding to the agmatinase sequence of E. coli.
(§3) All assays were initiated by adding the enzyme to a previously equilibrated buffer with the substrate in solution (the concentrations of used substrates were between 0.2–3 fold the Km). Urea was determined by a colorimetric method with α-isonitrosopropiophenone. The protein concentrations were determined by the Bradford’s method, with bovine serum albumin as standard. Initial velocity and enzymatic inhibition experiments were performed in duplicate and repeated three times. The inhibitory patterns were initially determined by double reciprocal plots and re-plots of intercepts and slopes versus inhibitor concentrations. […] Velocities are expressed as μmol of urea/10 min.

Experiment [2] addresses T2, human arginase type I N139D (Homo sapiens, UniProt P05089, N139D).
T2 sequence (P05089 1-322 N139D): T1 sequence (P05089 1-322 D181T) with N139D, T181D
Nature of the experiment: Kinetic and inhibition studies, N139D mutant. The procedure:
as §1, §2, §3

Experiment [3] addresses T3, type I human arginase D181T/V182E (Homo sapiens, UniProt P05089, D181T/V182E).
T3 construct: made in house; host or cells: E. coli JM109
T3 sequence (P05089 1-322 D181T/V182E): T1 sequence (P05089 1-322 D181T) with V182E
In words: Kinetic and inhibition studies, D181T/V182E double mutant. The conditions noted are these: substrate arginine. The procedure: as §1, §2, §3

In experiment [4] the target is T4, WT-arginase (human arginase type I) (Homo sapiens, UniProt P05089).
T4 construct: made in house; host or cells: E. coli JM109
T4 sequence (P05089 1-322): T1 sequence (P05089 1-322 D181T) with T181D
In words: Kinetic and inhibition studies, wild-type human arginase type I. The procedure: as §1, §3

Experiment [5] has as its target T5, human arginase type I S137C-N139D (Homo sapiens, UniProt P05089, N139D/S137C).
T5 construct: made in house; host or cells: E. coli JM109
T5 sequence (P05089 1-322 S137C/N139D): T1 sequence (P05089 1-322 D181T) with S137C, N139D, T181D
Nature of the experiment: Kinetic and inhibition studies, S137C-N139D mutant. The procedure:
as §1, §2
All assays were initiated by adding the enzyme to a previously equilibrated buffer with the substrate in solution (the concentrations of used substrates were between 0.2–3 fold the Km). Urea was determined by a colorimetric method with α-isonitrosopropiophenone. The protein concentrations were determined by the Bradford’s method, with bovine serum albumin as standard. […]

The mark [6] stands for this setting: substrate = labelled compound, pH 9.5, 2 mM Mn2+.

Consider `N=C(N)NCCC[C@H](N)C(=O)O` [Arginine, L-arginine], for which the catalytic constant (kcat) in experiment [1] was 191 ± 8 s⁻¹; in experiment [2] (substrate = labelled compound) it was 64 s⁻¹; in experiment [3] it was 188 ± 10 s⁻¹; in experiment [4] (substrate = labelled compound, pH 9.5, 2 mM Mn2+, n/a = no activity with the substrate), 190 s⁻¹ and 190 ± 10 s⁻¹; in experiment [5] (substrate = labelled compound), 83 s⁻¹. Further, the Michaelis-Menten constant (Km) in experiment [1] (pH 9.5, 2 mM Mn2+) came out at 5.3 ± 0.8 mM; in experiment [2] (setting [6]), 4.4 mM; in experiment [3] (pH 9.5, 2 mM Mn2+) it was 32 ± 5 mM; in experiment [4] (setting [6]) it was 1.5 mM; in experiment [5] (setting [6]), 10.8 mM.
For the compound `NCCC[C@H](N)C(=O)O` [Ornithine, L-ornithine], the Inhibition type result was “Competitive” in experiment [1], “mixed-type inhibition” in experiment [3] and “Competitive” in experiment [4] (substrate arginine). For the same compound, the Kis in experiment [1] is recorded as 1.6 ± 0.3 mM. In addition, the Ki in experiment [2] (read-out: Ki^orn) is 6.2 mM; in experiment [5] (read-out: Ki^orn), 8.4 mM. Moreover, the “Kis (Ki)” value turned out to be 71 ± 12 mM in experiment [3] and 2 ± 0.5 mM in experiment [4] (substrate arginine, pH 9.5).
